# Values of other authors as cited in patent US10130658B2, “Method of ex vivo enhancement of immune cell activity for cancer immunotherapy with a small molecule ablative compound” (Provectus Pharmatech, Inc., priority 2015, dated 2018).
# Legend:
# Hela cells = conditions: treated for 1 hour following photodynamic irradiation
Compound,time to autolyse tumor cells (tumor cells; accumulates in lysosomes of tumor cells) [min],uptake into normal cells (tumor cells; normal cells),HMGB1 release (Hela cells)
"O=C1OC2(c3cc(I)c(O)c(I)c3Oc3c2cc(I)c(O)c3I)c2c(Cl)c(Cl)c(Cl)c(Cl)c21 [RB, 4,5,6,7-tetrachloro-2′,4′,5′,7′-tetraiodofluorescein]",30 to 60,excluded,
CC(=O)Oc1c(I)cc2c(c1I)Oc1c(cc(I)c(OC(C)=O)c1I)C21OC(=O)c2c(Cl)c(Cl)c(Cl)c(Cl)c21 [rose bengal acetate],,,passively released
